Reference: patent publication US10604509B2, “Nrf2 regulators” (GlaxoSmithKline Intellectual Property Development Limited, priority 2015, dated 2020)
Structures can show the parent of a compound that is named as a salt.

Tested on: NQO1 specific enzyme activity in BEAS-2B cells
Assay: BEAS-2B NQO1 MTT assay
Format: cell-based
Details: BEAS-2B cells, 48 hours with compound, MTT readout; read-out: EC50 of NQO1 specific activity induction
Source text: NAD(P)H:quinone oxidoreductase 1 (NQO1), also called DT diaphorase, is a homodimeric FAD-containing enzyme that catalyzes obligatory NAD(P)H-dependent two-electron reductions of quinones and protects cells against the toxic and neoplastic effects of free radicals and reactive oxygen species arising from one-electron reductions. The transcription of NQO1 is finely regulated by NRF2, and thus NQO1 activity is a good marker for NRF2 activation. On day one, frozen BEAS-2B cells (ATCC) are thawed in a water bath, counted, and re-suspended at a concentration of 250,000 cells/mL. Fifty microliters of cells are plated in 384 well black clear-bottomed plates. Plates are incubated at 37° C., 5% CO2 overnight. On day two, plates are centrifuged and 50 nL of compound or controls are added to the cells. Plates are then incubated at 37° C., 5% CO2 for 48 hours. On day four, medium is aspirated from the plate and crude cell lysates are made by adding 13 uL of 1× Cell Signaling Technologies lysis buffer with 1 Complete, Mini, EDTA-free Protease Inhibitor Tablet (Roche) for each 10 mL of lysis buffer. After lysis plates are incubated for 20 minutes at room temperature. Two microliters of lysate are removed for use in Cell Titer Glo assay (Promega) and MTT cocktail is prepared (Prochaska et. al. 1998) for measurement of NQO1 activity. Fifty microliters of MTT cocktail is added to each well, plate is centrifuged, and analyzed on an Envision plate reader (Perkin Elmer) using Absorbance 570 nm label for 30 minutes. Product formation is measured kinetically and the EC50 of NQO1 specific activity induction is calculated by plotting the change in absorbance (Delta OD/min) versus the log of compound concentration followed by 3-parameter fitting.

Row | Compound | EC50 [nM]
1 | (S)-3-(1,4-Dimethyl-1H- benzo[d][1,2,3]triazol-5- yl)-3-(3-(((R)-2-ethyl-9- fluoro-2,3- dihydrobenzo[f][1,4]oxa- zepin-4(5H)-yl)methyl)-4- methylphenyl)-2,2- dimethylpropanoic acid, trifluoroacetic acid salt [Example 25] | < 1

Same assay, conditions: Homo sapiens, BEAS-2B, 48 h, BEAS-2B cells, 48 hours with compound, MTT readout; read-out: EC50 of NQO1 specific activity induction

Row | Compound | EC50 [nM]
2 | CC[C@@H]1CN(Cc2cc([C@H](CC(=O)O)c3ccc4c(nnn4CC)c3F)ccc2C)Cc2cnccc2O1 [Example 53, (S)-3-(3-(((R)-2-Ethyl-2,3-dihydropyrido[3,4-f][1,4]oxazepin-4(5H)-yl)methyl)-4-methylphenyl)-3-(1-ethyl-4-fluoro-1H-benzo[d][1,2,3]triazol-5-yl)propanoic acid] | 100 to 1000
3 | CC[C@@H]1CN(Cc2cc([C@H](c3ccc4c(nnn4C)c3C)C(C)(C)C(=O)O)ccc2C)Cc2ccccc2O1 [Example 27, (R)-3-(1,4-Dimethyl-1H-benzo[d][1,2,3]triazol-5-yl)-3-(3-(((R)-2-ethyl-2,3-dihydrobenzo[f][1,4]oxa-zepin-4(5H)-yl)methyl)-4-methylphenyl)-2,2-dimethylpropanoic acid] | 100 to 1000
4 | CCC1CN(Cc2cc(C(CC(=O)O)c3ccc4c(nnn4CC)c3C)ccc2C)Cc2ccccc2O1 (centres unmarked) [Example 69, 3-(3-((2-Ethyl-2,3-dihydrobenzo[f][1,4]oxazepin-4(5H)-yl)methyl)-4-methylphenyl)-3-(1-ethyl-4-methyl-1H-benzo[d][1,2,3]triazol-5-yl)propanoic Acid, Formic Acid Salt] | 10 to 100
5 | CC[C@@H]1CN(Cc2cc([C@H](c3ccc4c(nnn4C)c3C)C(C)C(=O)O)ccc2C)Cc2cc(F)ccc2O1 (stereo partly drawn) [Example 42, (3R)-3-(1,4-Dimethyl-1H-benzo[d][1,2,3]triazol-5-yl)-3-(3-(((R)-2-ethyl-7-fluoro-2,3-dihydrobenzo[f][1,4]oxazepin-4(5H)-yl)methyl)-4-methylphenyl)-2-methylpropanoic Acid, Trifluoroacetic Acid Salt] | 100 to 1000
6 | Cc1ccc(C(CC(=O)O)c2ccc3c(nnn3C)c2C)cc1CN1CCCn2cncc2C1 (centres unmarked) [Example 92, 3-(3-((6,7-Dihydro-5H-imidazo[1,5-a][1,4]diazepin-8(9H)-yl)methyl)-4-methylphenyl)-3-(1,4-dimethyl-1H-benzo[d][1,2,3]triazol-5-yl)propanoic acid, Sodium salt] | 1000 to 10000
7 | CCn1nnc2c(F)c([C@H](c3ccc(C)c(CN4Cc5cccnc5OC(C)(C)C4)c3)[C@@H](C)C(=O)O)ccc21 [Example 195, (2R,3S)-3-(3-((2,2-Dimethyl-2,3-dihydropyrldo[3,2-f][1,4]oxazepin-4(5H)-yl)methyl)-4-methylphenyl)-3-(1-ethyl-4-fluoro-1H-benzo[d][1,2,3]triazol-5-yl)-2-methylpropanoic acid] | 10 to 100
8 | CC[C@@H]1CN(Cc2cc([C@@H](c3ccc4c(nnn4C)c3C)C(C)(C)C(=O)O)ccc2C)Cc2ccccc2O1 [Example 26, (S)-3-(1,4-Dimethyl-1H-benzo[d][1,2,3]triazol-5-yl)-3-(3-(((R)-2-ethyl-2,3-dihydrobenzo[f][1,4]oxa-zepin-4(5H)-yl)methyl)-4-methylphenyl)-2,2-dimethylpropanoic acid, trifluoroacetic acid salt] | 1 to 10
9 | Cc1ccc([C@@H](CC(=O)O)c2ccc3c(nnn3C)c2C)cc1CN1Cc2cccc(F)c2OC(C)(C)C1 [Example 177, (R)-3-(1,4-Dimethyl-1H-benzo[d][1,2,3]triazol-5-yl)-3-(3-((9-fluoro-2,2-dimethyl-2,3-dihydrobenzo[f][1,4]oxazepin-4(5H)-yl)methyl)-4-methylphenyl)propanoic acid] | 10 to 100
10 | Cc1ccc(C(c2ccc3c(nnn3C)c2C)C(C)(C)C(=O)O)cc1Cn1ccnc1CN1C2CCC1CC2 (centres unmarked) [Example 155, 3-(3-((2-(7-Azabicyclo[2.2.1]heptan-7-ylmethyl)-1H-imidazol-1-yl)methyl)-4-methylphenyl)-3-(1,4-dimethyl-1H-benzo[d][1,2,3]triazol-5-yl)-2,2-dimethylpropanoic Acid, Trifluoroacetic Acid Salt] | 10 to 100
11 | Cc1ccc(C(c2ccc3c(nnn3C)c2C)C(C)(C)C(=O)O)cc1Cn1ccnc1CC1CCCOCC1 (centres unmarked) [Example 245, 3-(1,4-Dimethyl-1H-benzo[d][1,2,3]triazol-5-yl)-2,2-dimethyl-3-(4-methyl-3-((2-(oxepan-4-ylmethyl)-1H-imidazol-1-yl)methyl)phenyl)propanoic Acid] | 10 to 100
12 | Cc1ccc(C(CC(=O)O)c2ccc3c(nnn3C)c2C)cc1CN1CCCC1c1nnc(C(C)C)[nH]1 (centres unmarked) [Example 10, Ammonium 3-(1,4-dimethyl-1H-benzo[d][1,2,3]triazol-5-yl)-3-(3-((2-(5-isopropyl-4H-1,2,4-triazol-3-yl)pyrrolidin-1-yl)methyl)-4-methylphenyl)propanoate] | 1000 to 10000
13 | CCC1CN(Cc2cc(C(CCc3cn(CC)nn3)CC(=O)O)ccc2C)Cc2ccccc2O1 (centres unmarked) [Example 4, 5-(1-Ethyl-1H-1,2,3-triazol-4-yl)-3-(3-((2-ethyl-2,3-dihydrobenzo[f][1,4]oxazepin-4(5H)-yl)methyl)-4-methylphenyl)pentanoic Acid, Trifluoroacetic Acid Salt] | 1000 to 10000
14 | Cc1ccc(C(CC(=O)O)c2ccc3c(nnn3C)c2C)cc1CN1Cc2ccccc2CC(C)(C)C1 (centres unmarked) [Example 105, Ammonium 3-(1,4-dimethyl-1H-benzo[d][1,2,3]triazol-5-yl)-3-(3-((4,4-dimethyl-4,5-dihydro-1H-benzo[c]azepin-2(3H)-yl)methyl)-4-methylphenyl)propanoate] | 10 to 100
15 | COc1ccc(CN(Cc2cc(C(CC(=O)O)c3ccc4c(nnn4C)c3C)ccc2C)C2CC2)cc1 (centres unmarked) [Example 20, 3-(3-((cyclopropyl(4-methoxybenzyl)amino)meth-yl)-4-methylphenyl)-3-(1,4-dimethyl-1H-benzo[d][1,2,3]triazol-5-yl)propanoic acid, formic acid salt] | 100 to 1000
16 | CC[C@@H]1CN(Cc2cc(C(CC(=O)O)c3ccc4c(c3)nnn4C)ccc2C)Cc2ccccc2O1 (stereo partly drawn) [Example 91, 3-(3-(((R)-2-Ethyl-2,3-dihydrobenzo[f][1,4]oxazepin-4(5H)-yl)methyl)-4-methylphenyl)-3-(1-methyl-1H-benzo[d][1,2,3]triazol-5-yl)propanoic acid] | 100 to 1000
17 | Cc1ccc([C@@H](c2ccc3c(nnn3C)c2C)[C@@H](C)C(=O)O)cc1CN1Cc2cnccc2OC(C)(C)C1 [Example 203, (2R,3S)-3-(1,4-Dimethyl-1H-benzo[d][1,2,3]triazol-5-yl)-3-(3-((2,2-dimethyl-2,3-dihydropyrido[3,4-f][1,4]oxazepin-4(5H)-yl)methyl)-4-methylphenyl)-2-methylpropanoic Acid, 0.2 Formic Acid Salt] | 10 to 100
18 | CC[C@@H]1CN(Cc2cc(C(CC(=O)O)c3ccc4c(nnn4C)c3C)ccc2C)Cc2cc(Cl)ccc2O1 (stereo partly drawn) [Example 77, Ammonium 3-(3-(((R)-7-Chloro-2-ethyl-2,3-dihydrobenzo[f][1,4]oxazepin-4(5H)-yl)methyl)-4-methylphenyl)-3-(1,4-dimethyl-1H-benzo[d][1,2,3]triazol-5-yl)propanate] | 1000 to 10000
19 | CC[C@@H]1CN(Cc2cc(C(CC(=O)O)c3cnc4c(nnn4C)c3C)ccc2C)Cc2ccccc2O1 (stereo partly drawn) [Example 47, 3-(3,7-Dimethyl-3H-[1,2,3]triazolo[4,5-b]pyridin-6-yl)-3-(3-(((R)-2-ethyl-2,3-dihydrobenzo[f][1,4]oxazepin-4(5H)-yl)methyl)-4-methylphenyl)propanoic Acid, Trifluoroacetic Acid Salt] | 100 to 1000
20 | Cc1ccc(C(c2ccc3c(nnn3C)c2C)C(C)(C)C(=O)O)cc1Cn1ccnc1CC1CCCCC1 (centres unmarked) [Example 143, 3-(3-((2-(Cyclohexylmethyl)-1H-imidazol-1-yl)methyl)-4-methylphenyl)-3-(1,4-dimethy-1H-benzo[d][1,2,3]triazol-5-yl)-2,2-dimethylpropanoic acid, trifluoroacetic acid salt] | 1000 to 10000
21 | Cc1ccc([C@H](CC(=O)O)c2ccc3c(nnn3C)c2C)cc1CN1CCCC(Cn2cccn2)C1 (stereo partly drawn) [Example 215, (3S)-3-(3-((3-((1H-Pyrazol-1-yl)methyl)piperidin-1-yl)methyl)-4-methylphenyl)-3-(1,4-dimethyl-1H-benzo[d][1,2,3]triazol-5-yl)propanoic Acid] | 1000 to 10000
22 | Cc1c(C(CC(=O)O)c2ccc(F)c(CN3Cc4ncccc4OC(C)(C)C3)c2)ccc2c1nnn2C (single isomer, unassigned; isomer 1) [Example 261] | 100 to 1000

Same assay, conditions: Homo sapiens; BEAS-2B cells, 48 hours with compound, MTT readout; read-out: EC50 of NQO1 specific activity induction

Row | Compound | EC50 [nM]
23 | CC[C@@H]1CN(Cc2cc(C(c3ccc4c(nnn4C)c3C)C(C)(C)C(=O)O)ccc2C)Cc2ccccc2O1 (stereo partly drawn) [Example 114, 3-(1,4-Dimethyl-1H-benzo[d][1,2,3]triazol-5-yl)-3-(3-(((R)-2-ethyl-2,3-dihydrobenzo[f][1,4]oxazepin-4(5H)-yl)methyl)-4-methylphenyl)-2,2-dimethylpropanoic Acid, Lithium Salt] | 100 to 1000
